≈ marks a conversion by molar mass, not a printed value. Where a SMILES comes first, the peptide text is derived from it. Bridges are numbered along the chain shown (N, C = ends). [ ]: non-standard residue; d: D form. The star is where a group is joined. Pro(4R-Me) = C[C@H]1CN[C@H](C(=O)O)C1; NMeA = CN[C@@H](C)C(=O)O; X1 = CCC/C=C/C=C/C(=O)*
Legend:
Format in all cases: functional
Neisseria meningitidis [1] = experiment: Antibacterial activity against Neisseria meningitidis H44/76 incubated for 16 to 18 hrs by broth microdilution method
Neisseria meningitidis [2] = experiment: Antibacterial activity against clpP deficient Neisseria meningitidis H44/76 incubated for 16 to 18 hrs by broth microdilution method
Neisseria gonorrhoeae = experiment: Antibacterial activity against chloramphenicol-resistant Neisseria gonorrhoeae N.279 incubated for 16 to 18 hrs by broth microdilution method
Escherichia coli [3] = experiment: Antibacterial activity against Escherichia coli MC4100 incubated for 16 to 18 hrs by broth microdilution method
Escherichia coli [4] = experiment: Antibacterial activity against Escherichia coli MC4100 expressing lptD-4213 incubated for 16 to 18 hrs by broth microdilution method
Pseudomonas aeruginosa = experiment: Antibacterial activity against Pseudomonas aeruginosa PAO1 incubated for 16 to 18 hrs by broth microdilution method
Staphylococcus aureus [5] = experiment: Antibacterial activity against methicillin-resistant Staphylococcus aureus 1784A incubated for 16 to 18 hrs by broth microdilution method
Staphylococcus aureus [6] = experiment: Antibacterial activity against Staphylococcus aureus subsp. aureus Newman clinical isolate incubated for 16 to 18 hrs by broth microdilution method
Staphylococcus aureus [7] = experiment: Antibacterial activity against Staphylococcus aureus ATCC 29213 incubated for 16 to 18 hrs by broth microdilution method
Enterococcus faecalis = experiment: Antibacterial activity against vancomycin-resistant Enterococcus faecalis V583 incubated for 16 to 18 hrs by broth microdilution method
Streptococcus pneumoniae = experiment: Antibacterial activity against Streptococcus pneumoniae D39 incubated for 16 to 18 hrs by broth microdilution method
Bacillus subtilis = experiment: Antibacterial activity against Bacillus subtilis PY79 incubated for 16 to 18 hrs by broth microdilution method
Listeria innocua = experiment: Antibacterial activity against Listeria innocua incubated for 16 to 18 hrs by broth microdilution method

Work on CCCC/C=C/C(=O)N[C@@H](Cc1cc(F)cc(F)c1)C(=O)N[C@@H]1C(=O)N2CCC[C@H]2C(=O)N2CC[C@H](C)C[C@H]2C(=O)N[C@@H](C)C(=O)N2C[C@H](C)C[C@H]2C(=O)O[C@H]1C yielded an MIC (Neisseria meningitidis [1]) of 0.0625 µg/mL (≈ 0.0782 µM), an MIC (Neisseria meningitidis [2]) greater than 128 µg/mL and an MIC (Neisseria gonorrhoeae) of 0.125 µg/mL (≈ 0.156 µM). It also gave an MIC (Escherichia coli [3]) greater than 128 µg/mL, an MIC (Escherichia coli [4]) greater than 128 µg/mL and an MIC (Pseudomonas aeruginosa) greater than 128 µg/mL. For the same compound, the MIC (Staphylococcus aureus [5]) was 8 µg/mL (≈ 10 µM), the MIC (Staphylococcus aureus [6]) was 0.25 µg/mL (≈ 0.313 µM) and the MIC (Staphylococcus aureus [7]) was 0.0078 µg/mL (≈ 0.00976 µM). For the same compound, the MIC (Enterococcus faecalis) was 0.0156 µg/mL (≈ 0.0195 µM), the MIC (Streptococcus pneumoniae) was no more than 0.0625 µg/mL and the MIC (Bacillus subtilis) was no more than 0.0625 µg/mL. For the same compound, the MIC (Listeria innocua) was no more than 0.0625 µg/mL.

Work on CCCC/C=C/C(=O)N[C@@H](Cc1cc(F)cc(F)c1)C(=O)N[C@@H]1C(=O)N2CCC[C@H]2C(=O)N2CCCC[C@H]2C(=O)N[C@@H](C)C(=O)N2C[C@H](C)C[C@H]2C(=O)O[C@H]1C yielded an MIC (Neisseria meningitidis [1]) of 0.0625 µg/mL (≈ 0.0796 µM), an MIC (Neisseria meningitidis [2]) greater than 128 µg/mL and an MIC (Neisseria gonorrhoeae) of 0.0625 µg/mL (≈ 0.0796 µM). For the same compound, the MIC (Escherichia coli [3]) was greater than 128 µg/mL, the MIC (Escherichia coli [4]) was greater than 128 µg/mL and the MIC (Pseudomonas aeruginosa) was greater than 128 µg/mL. The MIC (Staphylococcus aureus [5]) was 0.125 µg/mL (≈ 0.159 µM), the MIC (Staphylococcus aureus [6]) was 0.0625 µg/mL (≈ 0.0796 µM) and the MIC (Staphylococcus aureus [7]) was 0.0039 µg/mL (≈ 0.00497 µM). For the same compound, the MIC (Enterococcus faecalis) was 0.0078 µg/mL (≈ 0.00994 µM), the MIC (Streptococcus pneumoniae) was no more than 0.0625 µg/mL and the MIC (Bacillus subtilis) was no more than 0.0625 µg/mL. For the same compound, the MIC (Listeria innocua) was no more than 0.0625 µg/mL.

CCC/C=C/C=C/C(=O)N[C@@H](Cc1ccccc1)C(=O)N[C@H]1COC(=O)[C@@H]2C[C@@H](C)CN2C(=O)[C@H](C)NC(=O)[C@H](C)N(C)C(=O)[C@@H]2CCCN2C1=O (X1-FSP[NMeA]A[Pro(4R-Me)]; ester 2-C) was tested, and the MIC (Neisseria meningitidis [1]) was 0.0313 µg/mL (≈ 0.0434 µM), the MIC (Neisseria meningitidis [2]) was greater than 128 µg/mL and the MIC (Neisseria gonorrhoeae) was 0.0156 µg/mL (≈ 0.0216 µM). It also gave an MIC (Escherichia coli [3]) greater than 128 µg/mL, an MIC (Escherichia coli [4]) greater than 128 µg/mL and an MIC (Pseudomonas aeruginosa) greater than 128 µg/mL. The MIC (Staphylococcus aureus [5]) was 0.5 µg/mL (≈ 0.694 µM), the MIC (Staphylococcus aureus [6]) was 0.25 µg/mL (≈ 0.347 µM) and the MIC (Staphylococcus aureus [7]) was 0.5 µg/mL (≈ 0.694 µM). For the same compound, the MIC (Enterococcus faecalis) was 0.125 µg/mL (≈ 0.173 µM), the MIC (Streptococcus pneumoniae) was no more than 0.0625 µg/mL and the MIC (Bacillus subtilis) was 0.125 µg/mL (≈ 0.173 µM). It also gave an MIC (Listeria innocua) of no more than 0.0625 µg/mL.

From ChEMBL document CHEMBL3763039, “Development and Characterization of Potent Cyclic Acyldepsipeptide Analogues with Increased Antimicrobial Activity” (2016)
